From ChEMBL document CHEMBL1133225
Active and inactive are the calls of the source. No cut-off for these calls is given here.

Assays:
[1] = target: T1, Acetylcholinesterase (Mus musculus) (UniProt P21836); test: Compound was tested against recombinant mouse Acetylcholinesterase; 5-40 uM, Modest inhibition
T1 sequence (whole entry): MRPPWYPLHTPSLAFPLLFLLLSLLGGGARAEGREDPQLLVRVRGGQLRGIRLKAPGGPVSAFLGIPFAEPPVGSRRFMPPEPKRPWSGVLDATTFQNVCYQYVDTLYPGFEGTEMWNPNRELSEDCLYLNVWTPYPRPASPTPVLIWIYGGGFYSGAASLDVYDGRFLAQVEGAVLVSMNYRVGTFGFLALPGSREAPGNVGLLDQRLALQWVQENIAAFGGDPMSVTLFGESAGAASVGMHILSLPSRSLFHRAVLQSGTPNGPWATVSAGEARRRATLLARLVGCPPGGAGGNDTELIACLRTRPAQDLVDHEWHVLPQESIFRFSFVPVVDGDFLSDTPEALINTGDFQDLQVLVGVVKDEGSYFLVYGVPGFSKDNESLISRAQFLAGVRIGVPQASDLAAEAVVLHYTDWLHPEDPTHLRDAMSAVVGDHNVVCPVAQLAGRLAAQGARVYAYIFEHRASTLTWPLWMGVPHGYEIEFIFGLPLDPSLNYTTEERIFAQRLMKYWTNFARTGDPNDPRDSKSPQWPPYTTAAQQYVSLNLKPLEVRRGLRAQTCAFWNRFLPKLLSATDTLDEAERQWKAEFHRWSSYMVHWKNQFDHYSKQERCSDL

[2] = target: Acetylcholinesterase (Electrophorus electricus) (UniProt O42275); test: Compound was tested against electric eel Acetylcholinesterase; Inactive
Chain of Acetylcholinesterase (Electrophorus electricus) (O42275 24-633 limits assumed): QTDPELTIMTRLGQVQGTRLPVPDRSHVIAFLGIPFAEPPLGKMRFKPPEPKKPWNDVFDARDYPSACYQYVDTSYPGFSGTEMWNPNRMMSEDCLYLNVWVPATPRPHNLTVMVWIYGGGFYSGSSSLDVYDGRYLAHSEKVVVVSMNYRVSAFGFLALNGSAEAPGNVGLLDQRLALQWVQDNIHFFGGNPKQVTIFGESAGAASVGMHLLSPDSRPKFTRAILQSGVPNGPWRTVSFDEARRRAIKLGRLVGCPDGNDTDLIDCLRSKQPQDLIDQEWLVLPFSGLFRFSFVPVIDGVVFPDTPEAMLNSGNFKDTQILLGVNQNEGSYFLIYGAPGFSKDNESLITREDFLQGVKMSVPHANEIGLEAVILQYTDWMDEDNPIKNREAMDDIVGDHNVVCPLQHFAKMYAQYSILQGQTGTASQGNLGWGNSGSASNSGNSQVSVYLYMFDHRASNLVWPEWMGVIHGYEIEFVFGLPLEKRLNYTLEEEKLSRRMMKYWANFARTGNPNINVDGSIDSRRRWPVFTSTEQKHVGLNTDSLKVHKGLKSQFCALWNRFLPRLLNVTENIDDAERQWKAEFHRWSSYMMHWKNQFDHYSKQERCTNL

SMILES: COP(=O)(CC(=O)N[C@@H](CCCCNS(=O)(=O)c1ccc2ccc3cccc4ccc1c2c34)C(N)=O)SC (some centres undefined)
- Concentration [1]: 40 µM
- Activity [2]: inactive

SMILES: COP(=O)(CC(=O)N[C@@H](CCCCNS(=O)(=O)c1ccc2ccc3cccc4ccc1c2c34)C(N)=O)OC
- Concentration [1]: 40 µM
- Activity [2]: inactive
